Measured values published in the supplement of paper PMC7600603.

Tests used:
[1] = system: DLD1 NRF2-GOF; settings: 72 h; CellTiter-Glo viability
Procedure, shortened: (§1)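 Cells grown in DMEM with 10% FBS were isogenic DLD1 colorectal cancer lines, NRF2 wild-type or CRISPR gain-of-function. In 384-well plates they received library compounds at 5 concentrations over a 10,000-fold range for 72 h before CellTiter-Glo readout on a Pherastar FS reader, normalised to vehicle wells and 100-μM positive-control wells. Dose-response fits used a four-parameter logistic model, from which EC50 and drug sensitivity score, a normalised area under the curve, were obtained.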

[2] = system: DLD1 NRF2-WT; settings: 72 h; CellTiter-Glo viability
Procedure, shortened: as §1

[3] = system: DLD1 NRF2-GOF; test: drug sensitivity score (DSS) cytotoxicity (DSS score); higher = more toxic; extreme values may be limits of the assay; settings: 72 h; CellTox Green cytotoxicity
Procedure, shortened: (§2)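 After growth in DMEM with 10% FBS, NRF2 wild-type and CRISPR-edited isogenic DLD1 cells were seeded in 384-well plates and given library compounds at 5 concentrations across a 10,000-fold range. Fluorescence from CellTox Green was taken on a Pherastar FS reader after 72 h and normalised against vehicle wells and 100-μM positive-control wells. From logistic dose-response fits of cytotoxicity came the TC50 and the drug sensitivity score, a normalised area under the curve.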

[4] = system: DLD1 NRF2-WT; test: as above; settings: 72 h; CellTox Green cytotoxicity
Procedure, shortened: as §2

[5] = system: DLD1 NRF2-GOF; test: drug sensitivity score (DSS) viability (DSS score); higher = more sensitive; extreme values may be limits of the assay; settings: 72 h; CellTiter-Glo viability
Procedure, shortened: as §1

[6] = system: DLD1 NRF2-WT; test: as above; settings: 72 h; CellTiter-Glo viability
Procedure, shortened: as §1

[7] = system: DLD1 NRF2-WT; test: TC50 cytotoxicity; higher = less toxic; settings: 72 h; CellTox Green cytotoxicity
Procedure, shortened: as §2

[8] = system: DLD1 NRF2-GOF; test: TC50 cytotoxicity; higher = less toxic; settings: 72 h; CellTox Green cytotoxicity
Procedure, shortened: as §2

SMILES | EC50 viability [1] | EC50 viability [2] | drug sensitivity score [3] | drug sensitivity score [4] | drug sensitivity score [5] | drug sensitivity score [6] | TC50 cytotoxicity [7] | TC50 cytotoxicity [8]
CC(=O)O[C@@]12CO[C@@H]1C[C@H](O)[C@@]1(C)C(=O)[C@H](O)C3=C(C)[C@@H](OC(=O)[C@H](O)[C@@H](NC(=O)OC(C)(C)C)c4ccccc4)C[C@@](O)([C@@H](OC(=O)c4ccccc4)[C@H]21)C3(C)C [Docetaxel] | 2.1 nM | 3.4 nM | 6.6 | 6.8 | 26.6 | 25.2 | – | –
CN1CCN(c2ccc3nc(-c4c(N)c5c(F)cccc5[nH]c4=O)[nH]c3c2)CC1 [Dovitinib] | > 10000 nM | > 10000 nM | – | – | 0 | 1.6 | – | –
Cc1cc(Nc2cc(N3CCN(C)CC3)nc(/C=C/c3ccccc3)n2)n[nH]1 [ENMD-2076] | 638 nM | 576 nM | 4.4 | 1.4 | 11.3 | 11.4 | > 10000 nM | –
COc1cc([C@@H]2c3cc4c(cc3[C@@H](O[C@@H]3O[C@@H]5CO[C@@H](C)O[C@H]5[C@H](O)[C@H]3O)[C@H]3COC(=O)[C@H]23)OCO4)cc(OC)c1O [Etoposide] | 936 nM | 1090 nM | 1.8 | 2.7 | 6.3 | 8.5 | – | > 10000 nM
CN1C(=O)N[C@H](Cc2c[nH]c3c(Cl)cccc23)C1=O [Necrostatin 2] | > 10000 nM | > 10000 nM | – | – | 0 | 0 | – | –
Cc1ccc(C(=O)Nc2ccc(CN3CCN(C)CC3)c(C(F)(F)F)c2)cc1C#Cc1cnc2cccnn12 [Ponatinib] | 114 nM | 226 nM | – | – | 6 | 4 | – | –
Nc1cc(F)ccc1NC(=O)/C=C/c1cnn(C/C=C/c2ccccc2)c1 [RGFP966] | 1070 nM | – | 0 | 0 | 3.7 | 3.9 | > 10000 nM | > 10000 nM
COc1cc(OC)c(/C=C/S(=O)(=O)Cc2ccc(OC)c(NCC(=O)O)c2)c(OC)c1 [Rigosertib] | 107 nM | 106 nM | 9.4 | 5.9 | 19 | 21 | – | 190 nM
CCc1c2c(nc3ccc(O)cc13)-c1cc3c(c(=O)n1C2)COC(=O)[C@]3(O)CC [SN-38] | 158 nM | 337 nM | 2 | 2.3 | 17.5 | 12.7 | 1670 nM | –
Cn1cnc2c(F)c(Nc3ccc(Br)cc3Cl)c(C(=O)NOCCO)cc21 [Selumetinib] | > 10000 nM | – | 0 | 0 | 0 | 2 | > 10000 nM | > 10000 nM
CNC(=O)c1cc(Oc2ccc(NC(=O)Nc3ccc(Cl)c(C(F)(F)F)c3)cc2)ccn1 [Sorafenib] | 87.1 nM | – | 0 | 0 | 3.3 | 1.2 | > 1000 nM | > 1000 nM
CC(=O)Nc1ccc(C(=O)Nc2ccccc2N)cc1 [Tacedinaline] | 58.2 nM | – | 0 | 0 | 4 | 1.9 | > 1000 nM | > 1000 nM
Cn1ncnc1[C@H]1c2n[nH]c(=O)c3cc(F)cc(c23)N[C@@H]1c1ccc(F)cc1 [Talazoparib] | > 1000 nM | – | 0 | 0 | 2.4 | 5.6 | > 1000 nM | > 1000 nM
CO[C@H]1C[C@@H]2CC[C@@H](C)[C@@](O)(O2)C(=O)C(=O)N2CCCC[C@H]2C(=O)O[C@H]([C@H](C)C[C@@H]2CC[C@@H](OC(=O)C(C)(CO)CO)[C@H](OC)C2)CC(=O)[C@H](C)/C=C(\C)[C@@H](O)[C@@H](OC)C(=O)[C@H](C)C[C@H](C)/C=C/C=C/C=C/1C [Temsirolimus] | > 100 nM | > 100 nM | – | – | 1.3 | 4.1 | – | –
Cc1cc(Nc2cc(N3CCN(C)CC3)nc(Sc3ccc(NC(=O)C4CC4)cc3)n2)n[nH]1 [Tozasertib] | 99.2 nM | 155 nM | 11.6 | 5.7 | 15.9 | 14.2 | – | 31.1 nM
O=C(CCCCCCC(=O)Nc1ccc([C@H]2O[C@@H](CSc3nc(-c4ccccc4)c(-c4ccccc4)o3)C[C@@H](c3ccc(CO)cc3)O2)cc1)NO [Tubacin] | 1710 nM | – | 0 | 0 | 3 | 2.7 | > 10000 nM | > 10000 nM
CN[C@@H]1C[C@H]2O[C@@](C)([C@@H]1OC)n1c3ccccc3c3c4c(c5c6ccccc6n2c5c31)C(=O)N[C@H]4O [UCN-01] | 578 nM | 344 nM | 5 | 10.4 | 12.6 | 16.4 | 302 nM | –
COc1cc2c(NC3CCN(C(C)C)CC3)nc(C3CCCCC3)nc2cc1OCCCN1CCCC1 [UNC0638] | > 10000 nM | – | 0 | 0 | 0.2 | 2.4 | > 10000 nM | > 10000 nM
Clc1ccc(Nc2nnc(Cc3ccncc3)c3ccccc23)cc1 [Vatalanib] | > 10000 nM | > 10000 nM | – | – | 0 | 0 | – | –
CC[C@]1(O)C[C@H]2CN(CCc3c([nH]c4ccccc34)[C@@](C(=O)OC)(c3cc4c(cc3OC)N(C=O)[C@H]3[C@@](O)(C(=O)OC)[C@H](OC(C)=O)[C@]5(CC)C=CCN6CC[C@]43[C@@H]65)C2)C1 [Vincristine] | 4.9 nM | 6.3 nM | 5.5 | 6.8 | 22.8 | 22.4 | – | > 1000 nM
CC[C@]12C=CCN3CC[C@@]4(c5cc([C@@]6(C(=O)OC)C[C@@H]7C[C@@H](C(C)(F)F)CN(Cc8c6[nH]c6ccccc86)C7)c(OC)cc5N(C)[C@H]4[C@@](O)(C(=O)OC)[C@@H]1OC(C)=O)[C@@H]32 [Vinflunine] | 162 nM | 143 nM | 1 | 1.3 | 6.9 | 7 | > 1000 nM | –
CC[C@@H]1C(=O)N(C)c2cnc(Nc3ccc(C(=O)N[C@H]4CC[C@H](N5CCN(CC6CC6)CC5)CC4)cc3OC)nc2N1C(C)C [Volasertib] | 4.8 nM | 5.1 nM | 6 | 7 | 18.8 | 20.7 | – | –
